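Test compounds were applied to cells in 96-well plates for 48 hours at 5 doses. GI50 is the concentration that inhibits growth by half. TGI denotes the concentration required for complete inhibition of growth.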
Columns and labels:
Assay in all cases: NCI-60 cell line screen, 48 h
786-0 renal = tested on: 786-0 renal
COLO 205 colon = tested on: COLO 205 colon
EKVX NSCLC = tested on: EKVX NSCLC
HCT-15 colon = tested on: HCT-15 colon
PC-3 prostate = tested on: PC-3 prostate
SK-OV-3 ovarian = tested on: SK-OV-3 ovarian
SNB-19 CNS = tested on: SNB-19 CNS
SNB-75 CNS = tested on: SNB-75 CNS

SMILES | TGI (786-0 renal) [µM] | TGI (COLO 205 colon) [µM] | TGI (EKVX NSCLC) [µM] | TGI (HCT-15 colon) [µM] | TGI (PC-3 prostate) [µM] | TGI (SK-OV-3 ovarian) [µM] | TGI (SNB-19 CNS) [µM] | TGI (SNB-75 CNS) [µM] | GI50 (786-0 renal) [µM] | GI50 (COLO 205 colon) [nM] | GI50 (EKVX NSCLC) [µM] | GI50 (HCT-15 colon) [µM] | GI50 (SK-OV-3 ovarian) [µM] | GI50 (SNB-19 CNS) [µM] | GI50 (SNB-75 CNS) [µM] | GI50 (PC-3 prostate) [µM]
CC1(C)CC(=O)C(C(c2cccc(O)c2O)C2C(=O)CC(C)(C)CC2=O)C(=O)C1 | > 100 | > 100 | > 100 | > 100 | > 100 | > 100 | > 100 | > 100 | – | – | – | – | – | – | – | –
O=C(/C=C/C=C/c1ccccc1)c1ccc(Nc2nc(Nc3ccccc3)nc(Nc3ccccc3)n2)cc1 | > 100 | > 100 | > 100 | > 100 | – | > 100 | > 100 | > 100 | 45.8 | 2160 | 88.2 | > 100 | > 100 | > 100 | 17.8 | –
COc1ccccc1CNCCCN1C(=O)c2ccc3c4c(ccc(c24)C1=O)C(=O)N(CCCNCCCCNCCCCN)C3=O | 14.4 | 1.31 | – | 22.8 | 10.3 | 14.1 | 10.1 | 3.68 | 2.25 | 351 | – | 2.92 | 2.82 | 2.72 | 1.3 | 2.5
Cn1cc(C2=C(c3c4n(c5ccccc35)CC(CN)C4)C(=O)NC2=O)c2ccccc21 (centres undefined) | 8.53 | 6.05 | – | 15.8 | 9.01 | 14.7 | 15.3 | 2.93 | 3.64 | 2590 | – | 4.33 | 1.93 | 5.39 | 0.246 | 2.04
C(=N/Nc1ncnc2nc[nH]c12)/c1ccccn1 | 5.43 | > 100 | 40.5 | > 100 | > 100 | 15.6 | > 100 | 35.1 | 1.65 | 1720 | 0.386 | 1.11 | 0.456 | 0.98 | 1.73 | 0.786
O=C(c1ccccn1)c1nnn2ccccc12 | > 100 | > 100 | > 100 | > 100 | > 100 | > 100 | > 100 | > 100 | – | – | – | – | – | – | – | –
C[As](C)Sc1ccnc(S[As](C)C)n1 | > 40.5 | > 39.3 | 35.8 | 14.7 | 30.8 | > 100 | > 56.2 | > 100 | 5.36 | 1530 | 11.2 | 0.928 | 12.4 | 14.7 | 12.7 | 3.14
O=S(=O)(O)c1ccc(Cl)cc1.[Cd] | 50.2 | > 100 | > 100 | > 100 | 66.3 | > 100 | > 100 | 97.2 | 22.5 | > 100000 | 80.6 | > 100 | > 100 | > 100 | 37.7 | 25.2
Cc1cc(Cl)ccc1NC(=O)/C(Cl)=C(/Cl)C(=O)O | 51.7 | 78 | 39.9 | 37.9 | 54.5 | > 100 | > 100 | > 100 | – | – | – | – | – | – | – | –
COc1ccc(/C=C2\N=C(c3ccccc3)N(c3cc(C(F)(F)F)ccc3Cl)C2=O)cc1OC | 37.3 | > 100 | > 100 | > 100 | > 100 | > 100 | > 100 | > 100 | 13.8 | 74000 | > 100 | 40.7 | > 100 | 46.4 | 56.7 | 31.4
O=C(c1ccccc1)c1ccc(Cl)c([N+](=O)[O-])c1 | 99.2 | 19.9 | – | 9.86 | 29.8 | 29.9 | 30.2 | 18.9 | 21 | 5010 | – | 2.95 | 15.8 | 16 | 4.74 | 8.22
C/C(=N\Nc1ccc2ccccc2n1)c1ccccc1O | > 100 | > 100 | > 100 | > 100 | > 100 | > 57.6 | > 100 | 24.7 | – | – | – | – | – | – | – | –
CCCn1cc(C2=C(c3cn(C)c4ccccc34)C(=O)NC2=O)c2ccccc21 | > 25 | > 7.08 | – | > 19.2 | > 25 | > 19 | > 25 | 2.09 | 1.62 | 889 | – | 0.688 | 1.22 | 5.58 | 0.458 | 1.03
CCOCCc1c(O)nc(SC)[nH]c1=O | > 100 | > 100 | > 100 | > 100 | > 100 | > 100 | > 100 | > 100 | > 100 | > 100000 | > 100 | > 100 | > 100 | > 100 | > 100 | > 100
O=C1Nc2ccccc2C1(c1ccc(O)c(F)c1)c1ccc(O)c(F)c1 | 44.1 | 1.98 | 43.5 | 34.4 | 6.95 | 52 | 69 | 36.5 | 18.8 | 297 | 4.31 | 8.34 | 21.1 | 19.1 | 0.661 | 1.08
CC(C)c1ccc2c(N=Nc3ccc(S(N)(=O)=O)cc3)c(O)[nH]c2c1 | > 25 | > 25 | > 25 | > 25 | > 25 | 19.3 | > 25 | 10.3 | 12.6 | > 25000 | > 16.6 | > 22.6 | 7.22 | > 14.5 | 4.72 | > 17.1
Fc1ccc(CNc2c3ccccc3nc3ccccc23)cc1 | 11.7 | 3.7 | 11.4 | 5.31 | 16.8 | 10.1 | 15.4 | 10.8 | 3.02 | 1660 | 2.61 | 1.98 | 2.56 | 3.66 | 2.01 | 3.11
CCOC(=O)C1=C(N)Oc2c(sc3c(C)cccc23)C1c1ccc(Cl)cc1 (centres undefined) | 16.8 | 14.1 | 17.1 | 10.6 | 13.5 | 30.1 | 16 | 7.79 | 4.05 | 3460 | 3.75 | 2.02 | 7.97 | 3.71 | 0.643 | 2.53
C=C1C(=O)O[C@H]2[C@H]1CC/C(C=Nc1ccc(C(F)(F)F)cc1N)=C\CC[C@@]1(C)O[C@@H]21 | 18.5 | 16.3 | 23.4 | 13.6 | 23.4 | 30 | 26.2 | 23.2 | 5.86 | 4210 | 10.8 | 3.48 | 16.3 | 11.5 | 10.9 | 9.08
CN(C)CCCNC(=O)c1cc(NC(=O)CCNC(=O)c2ccc3c(c2)C(=O)c2ccccc2C3=O)cn1C | > 100 | > 100 | > 100 | – | > 100 | > 100 | > 100 | – | > 100 | 33900 | > 100 | – | > 100 | > 100 | – | > 100
O=C(CCCCC(=O)N/N=C\c1ccccc1Cl)N/N=C\c1ccccc1Cl | 74.9 | > 100 | > 100 | > 100 | > 100 | – | 39.6 | 32.9 | 14.7 | 2910 | 1.73 | 3.08 | – | 11.3 | 12.7 | 0.511
COc1cc(-c2cc(/C=C/C(=O)c3ccc4c(c3)OCO4)[nH]n2)cc(OC)c1OC | 5.82 | 3.85 | – | 7.19 | 13.7 | 26.1 | > 100 | – | 2.33 | 1870 | – | 2.12 | 5.76 | 4.3 | – | 2.81
COc1ccc2c(CC(=O)O)cc(=O)oc2c1 | > 100 | > 100 | > 100 | > 100 | > 100 | – | > 100 | – | – | – | – | – | – | – | – | –
COc1ccc(-c2cc(-c3ccc(O)cc3)nc3nc(=S)[nH]c(N)c23)cc1 | 56.6 | 50.1 | 60.7 | 58 | 43.7 | – | > 100 | > 100 | 22.8 | 17000 | 13.5 | 19.6 | – | 26.7 | 26.2 | 15.8
COc1ccc(-c2cn(-c3ccc(Cl)cc3)c(=S)[nH]2)cc1OC | 91.7 | > 100 | > 100 | > 100 | > 100 | > 100 | – | 60.3 | 6.44 | 5610 | 13.2 | 5.22 | 48.9 | – | 16.4 | 65.5

From PubChem BioAssay (NCI)
